How the values were obtained:
[1] = target: Serine/threonine-protein kinase 16 (Homo sapiens) (UniProt O75716); experiment: Inhibition of MPSK1 Lys2 labeling site in human A-375 cells at 5 uM by KiNativ Profiling analysis relative to control; type: cell-based
[2] = test system: Tyrosine-protein kinase ABL1 (Homo sapiens), P00519 [Q252H]; experiment: Inhibition of phosphorylated ABL1 Q252H mutant (unknown origin) at 1 uM by Ambit Kinomescan binding assay relative to control; values are per cent of control
[3] = target: T1, Ephrin type-B receptor 4 (Homo sapiens) (UniProt P54760); experiment: Inhibition of EPHB4 (unknown origin) at 1 uM by Ambit Kinomescan binding assay relative to control
T1 sequence (whole entry): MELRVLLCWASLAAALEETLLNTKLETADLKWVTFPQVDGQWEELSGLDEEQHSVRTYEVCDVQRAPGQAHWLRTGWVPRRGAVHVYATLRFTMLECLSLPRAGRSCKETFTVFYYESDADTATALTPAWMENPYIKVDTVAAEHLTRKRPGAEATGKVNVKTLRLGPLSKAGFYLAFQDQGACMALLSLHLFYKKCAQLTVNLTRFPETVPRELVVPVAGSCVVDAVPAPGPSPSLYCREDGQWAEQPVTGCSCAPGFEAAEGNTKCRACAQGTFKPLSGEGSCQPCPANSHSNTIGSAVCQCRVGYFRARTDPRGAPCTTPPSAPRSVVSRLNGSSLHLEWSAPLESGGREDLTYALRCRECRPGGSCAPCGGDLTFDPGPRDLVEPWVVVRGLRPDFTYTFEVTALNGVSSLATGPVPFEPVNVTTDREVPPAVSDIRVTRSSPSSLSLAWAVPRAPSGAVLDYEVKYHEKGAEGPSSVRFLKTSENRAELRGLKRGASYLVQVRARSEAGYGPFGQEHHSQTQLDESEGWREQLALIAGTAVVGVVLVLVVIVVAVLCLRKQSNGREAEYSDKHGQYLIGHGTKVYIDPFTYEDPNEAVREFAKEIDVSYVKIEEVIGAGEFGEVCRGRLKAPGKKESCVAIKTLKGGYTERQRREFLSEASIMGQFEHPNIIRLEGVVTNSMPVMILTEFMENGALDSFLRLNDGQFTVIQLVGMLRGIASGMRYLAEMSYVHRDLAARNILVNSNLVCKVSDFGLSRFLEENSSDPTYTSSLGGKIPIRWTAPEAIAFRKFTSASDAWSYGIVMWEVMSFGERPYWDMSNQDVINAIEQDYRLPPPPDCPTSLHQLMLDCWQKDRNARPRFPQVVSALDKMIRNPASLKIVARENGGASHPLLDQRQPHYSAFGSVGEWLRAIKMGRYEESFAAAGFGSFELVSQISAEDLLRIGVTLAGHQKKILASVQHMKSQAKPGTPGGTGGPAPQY

[4] = target: Insulin-like growth factor 1 receptor (Homo sapiens) (UniProt P08069); experiment: Inhibition of IGF1R (unknown origin) at 1 uM by Ambit Kinomescan binding assay relative to control; values are per cent of control
[5] = target: Mitogen-activated protein kinase 8 (Homo sapiens, UniProt P45983); experiment: Inhibition of JNK1 (unknown origin) at 1 uM by Ambit Kinomescan binding assay relative to control
[6] = target: Tyrosine-protein kinase ITK/TSK (Homo sapiens) (UniProt Q08881); experiment: Inhibition of ITK (unknown origin) at 1 uM by Ambit Kinomescan binding assay relative to control
[7] = target: Cyclin-dependent kinase 8 (Homo sapiens) (UniProt P49336); experiment: Inhibition of CDK8 (unknown origin) at 10 uM by Ambit Kinomescan binding assay relative to control; values are per cent of control
[8] = target: T2, Phosphatidylinositol 5-phosphate 4-kinase type-2 alpha (Homo sapiens) (UniProt P48426); experiment: Inhibition of PIP5K2A LIP labeling site in human Huh-7 cells at 10 uM by KiNativ Profiling analysis relative to control; type: cell-based
T2 sequence (whole entry): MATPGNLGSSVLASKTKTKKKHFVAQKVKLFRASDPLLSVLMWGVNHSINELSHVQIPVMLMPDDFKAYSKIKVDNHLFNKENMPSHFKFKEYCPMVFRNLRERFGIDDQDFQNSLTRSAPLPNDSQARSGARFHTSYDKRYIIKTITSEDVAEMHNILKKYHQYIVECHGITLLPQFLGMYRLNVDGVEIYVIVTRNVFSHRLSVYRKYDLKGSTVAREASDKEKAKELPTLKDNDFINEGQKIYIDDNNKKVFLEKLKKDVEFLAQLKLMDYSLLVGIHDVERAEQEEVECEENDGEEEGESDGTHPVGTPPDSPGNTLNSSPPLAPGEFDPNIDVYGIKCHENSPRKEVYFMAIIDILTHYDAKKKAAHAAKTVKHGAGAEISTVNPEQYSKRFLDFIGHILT

[9] = target: Cyclin-dependent kinase 5 (Homo sapiens) (UniProt Q00535); experiment: Inhibition of CDK5 (unknown origin) at 10 uM by Ambit Kinomescan binding assay relative to control
[10] = target: Hepatocyte growth factor receptor (Homo sapiens) (UniProt P08581); experiment: Inhibition of MET ACT labeling site in human Huh-7 cells at 10 uM by KiNativ Profiling analysis relative to control; type: cell-based
[11] = test system: Epidermal growth factor receptor (Homo sapiens), P00533 [L858R]; experiment: Inhibition of EGFR L858R mutant (unknown origin) at 10 uM by Ambit Kinomescan binding assay relative to control
[12] = target: Myosin light chain kinase 2, skeletal/cardiac muscle (Homo sapiens) (UniProt Q9H1R3); experiment: Inhibition of MYLK2 (unknown origin) at 10 uM by Ambit Kinomescan binding assay relative to control
[13] = target: Rho-associated protein kinase (Homo sapiens) (UniProt O75116+Q13464); experiment: Inhibition of ROCK1/2 K2 labeling site in human Huh-7 cells at 1 uM by KiNativ Profiling analysis relative to control; type: cell-based
[14] = target: Serine/threonine-protein kinase WNK1 (Homo sapiens) (UniProt Q9H4A3); experiment: Inhibition of Wnk1 Lys2 labeling site in human Huh-7 cell lysate at 1 uM by KiNativ Profiling analysis relative to control; type: subcellular
[15] = target: 5'-AMP-activated protein kinase catalytic subunit alpha-2 (Homo sapiens) (UniProt P54646); experiment: Inhibition of AMPKa2 Lys1 labeling site in human Huh-7 cell lysate at 1 uM by KiNativ Profiling analysis relative to control; type: subcellular
[16] = Inhibition of KHS1 Lys2 labeling site harbouring DIKGANILLTDHGDVK in human Huh-7 cells at 1 uM by KiNativ Profiling analysis relative to control; conditions: condition cancer

Insulin-like growth factor 1 receptor (Homo sapiens), sequence (P08069 31-736 limits assumed): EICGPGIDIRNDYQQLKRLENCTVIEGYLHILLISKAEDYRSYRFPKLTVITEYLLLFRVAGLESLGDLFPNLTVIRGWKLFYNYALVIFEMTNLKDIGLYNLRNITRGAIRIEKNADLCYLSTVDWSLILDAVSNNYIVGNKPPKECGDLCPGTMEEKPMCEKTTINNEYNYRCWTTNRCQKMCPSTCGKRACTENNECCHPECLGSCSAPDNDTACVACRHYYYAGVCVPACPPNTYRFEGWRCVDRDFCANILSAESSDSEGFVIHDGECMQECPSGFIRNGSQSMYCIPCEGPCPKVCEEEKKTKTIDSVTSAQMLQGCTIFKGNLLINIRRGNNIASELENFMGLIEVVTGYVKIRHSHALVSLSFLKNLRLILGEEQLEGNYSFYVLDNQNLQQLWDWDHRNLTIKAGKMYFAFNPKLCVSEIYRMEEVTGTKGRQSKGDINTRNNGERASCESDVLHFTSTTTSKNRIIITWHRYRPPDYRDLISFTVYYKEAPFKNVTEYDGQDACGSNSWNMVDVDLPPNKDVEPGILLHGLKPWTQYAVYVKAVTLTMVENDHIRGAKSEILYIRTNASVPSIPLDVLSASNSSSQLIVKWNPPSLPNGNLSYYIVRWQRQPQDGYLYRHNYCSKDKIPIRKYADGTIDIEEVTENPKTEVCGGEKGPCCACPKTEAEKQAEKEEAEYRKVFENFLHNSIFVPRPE
Insulin-like growth factor 1 receptor (Homo sapiens), sequence (P08069 741-1367 limits assumed): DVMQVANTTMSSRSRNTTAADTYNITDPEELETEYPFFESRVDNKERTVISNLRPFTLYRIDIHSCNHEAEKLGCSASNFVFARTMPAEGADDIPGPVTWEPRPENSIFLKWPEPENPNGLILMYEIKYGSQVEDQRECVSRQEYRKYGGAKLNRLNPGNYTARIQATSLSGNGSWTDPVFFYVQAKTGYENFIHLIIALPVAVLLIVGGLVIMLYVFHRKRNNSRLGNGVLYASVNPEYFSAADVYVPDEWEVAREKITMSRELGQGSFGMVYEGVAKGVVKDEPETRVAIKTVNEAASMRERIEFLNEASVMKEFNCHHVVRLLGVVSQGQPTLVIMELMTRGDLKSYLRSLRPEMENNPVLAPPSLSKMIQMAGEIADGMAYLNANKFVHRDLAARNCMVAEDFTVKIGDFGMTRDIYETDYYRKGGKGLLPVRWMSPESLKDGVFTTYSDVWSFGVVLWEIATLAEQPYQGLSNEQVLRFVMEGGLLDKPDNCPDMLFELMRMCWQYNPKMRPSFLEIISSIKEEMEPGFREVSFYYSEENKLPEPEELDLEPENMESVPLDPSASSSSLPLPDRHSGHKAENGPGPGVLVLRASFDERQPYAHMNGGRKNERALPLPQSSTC
Serine/threonine-protein kinase 16 (Homo sapiens), sequence (O75716 whole entry): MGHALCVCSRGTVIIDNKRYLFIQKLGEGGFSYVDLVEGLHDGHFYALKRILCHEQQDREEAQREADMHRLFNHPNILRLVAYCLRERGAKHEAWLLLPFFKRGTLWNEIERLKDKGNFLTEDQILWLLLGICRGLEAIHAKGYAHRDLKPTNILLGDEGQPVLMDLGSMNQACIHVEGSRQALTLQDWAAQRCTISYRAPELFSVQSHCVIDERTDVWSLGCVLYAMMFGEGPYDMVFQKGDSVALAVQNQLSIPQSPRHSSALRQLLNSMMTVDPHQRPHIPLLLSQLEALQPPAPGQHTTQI
5'-AMP-activated protein kinase catalytic subunit alpha-2 (Homo sapiens), sequence (P54646 whole entry, looked up): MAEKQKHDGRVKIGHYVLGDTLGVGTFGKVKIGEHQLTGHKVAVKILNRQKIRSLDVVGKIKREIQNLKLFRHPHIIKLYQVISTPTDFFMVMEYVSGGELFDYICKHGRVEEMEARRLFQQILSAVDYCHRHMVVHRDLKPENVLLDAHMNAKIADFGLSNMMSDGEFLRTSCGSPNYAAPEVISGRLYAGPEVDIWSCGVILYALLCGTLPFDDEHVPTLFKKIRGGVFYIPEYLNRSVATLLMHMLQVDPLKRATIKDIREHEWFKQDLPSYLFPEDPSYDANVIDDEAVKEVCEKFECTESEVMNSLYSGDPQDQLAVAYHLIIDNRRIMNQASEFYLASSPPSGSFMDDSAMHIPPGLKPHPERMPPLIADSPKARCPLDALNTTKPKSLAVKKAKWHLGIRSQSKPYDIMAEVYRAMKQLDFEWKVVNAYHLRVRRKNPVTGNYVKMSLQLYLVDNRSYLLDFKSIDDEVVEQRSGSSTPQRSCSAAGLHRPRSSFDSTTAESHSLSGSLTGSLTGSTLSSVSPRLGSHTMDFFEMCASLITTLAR
Cyclin-dependent kinase 5 (Homo sapiens), sequence (Q00535 whole entry, looked up): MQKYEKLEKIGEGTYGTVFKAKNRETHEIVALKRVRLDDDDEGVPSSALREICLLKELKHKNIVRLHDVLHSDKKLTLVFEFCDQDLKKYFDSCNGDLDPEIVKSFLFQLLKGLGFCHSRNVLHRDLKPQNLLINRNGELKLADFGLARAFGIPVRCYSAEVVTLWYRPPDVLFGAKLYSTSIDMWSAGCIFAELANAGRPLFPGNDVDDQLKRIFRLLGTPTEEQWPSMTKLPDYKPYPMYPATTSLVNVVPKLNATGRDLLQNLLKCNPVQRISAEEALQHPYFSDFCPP
Mitogen-activated protein kinase 8, sequence (P45983 whole entry): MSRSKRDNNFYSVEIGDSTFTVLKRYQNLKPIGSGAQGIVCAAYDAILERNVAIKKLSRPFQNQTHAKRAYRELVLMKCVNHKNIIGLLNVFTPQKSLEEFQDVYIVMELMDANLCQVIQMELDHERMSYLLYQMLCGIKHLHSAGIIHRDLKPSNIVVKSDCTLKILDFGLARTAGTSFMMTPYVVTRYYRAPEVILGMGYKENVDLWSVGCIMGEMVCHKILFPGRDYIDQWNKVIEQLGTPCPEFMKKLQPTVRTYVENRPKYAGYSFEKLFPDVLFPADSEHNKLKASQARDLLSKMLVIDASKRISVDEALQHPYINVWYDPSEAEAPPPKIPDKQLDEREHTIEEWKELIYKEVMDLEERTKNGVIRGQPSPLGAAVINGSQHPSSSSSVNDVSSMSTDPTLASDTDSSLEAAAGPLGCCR
Myosin light chain kinase 2, skeletal/cardiac muscle (Homo sapiens), sequence (Q9H1R3 whole entry): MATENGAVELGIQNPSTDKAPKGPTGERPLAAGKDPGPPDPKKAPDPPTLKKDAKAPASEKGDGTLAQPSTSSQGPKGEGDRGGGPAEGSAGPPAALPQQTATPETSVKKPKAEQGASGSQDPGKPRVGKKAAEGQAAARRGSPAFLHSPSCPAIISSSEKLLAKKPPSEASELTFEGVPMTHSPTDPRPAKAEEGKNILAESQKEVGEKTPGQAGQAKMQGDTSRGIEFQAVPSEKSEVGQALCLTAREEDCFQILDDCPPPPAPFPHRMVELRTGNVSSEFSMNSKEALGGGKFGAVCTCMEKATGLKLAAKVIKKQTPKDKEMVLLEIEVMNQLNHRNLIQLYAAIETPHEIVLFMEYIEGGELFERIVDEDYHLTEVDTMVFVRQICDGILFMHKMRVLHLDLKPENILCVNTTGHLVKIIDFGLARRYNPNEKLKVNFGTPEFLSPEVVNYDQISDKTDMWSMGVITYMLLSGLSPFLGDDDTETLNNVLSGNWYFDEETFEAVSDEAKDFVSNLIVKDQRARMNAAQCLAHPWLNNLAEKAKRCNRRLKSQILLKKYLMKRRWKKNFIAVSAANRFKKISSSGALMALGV
Hepatocyte growth factor receptor (Homo sapiens), sequence (P08581 whole entry): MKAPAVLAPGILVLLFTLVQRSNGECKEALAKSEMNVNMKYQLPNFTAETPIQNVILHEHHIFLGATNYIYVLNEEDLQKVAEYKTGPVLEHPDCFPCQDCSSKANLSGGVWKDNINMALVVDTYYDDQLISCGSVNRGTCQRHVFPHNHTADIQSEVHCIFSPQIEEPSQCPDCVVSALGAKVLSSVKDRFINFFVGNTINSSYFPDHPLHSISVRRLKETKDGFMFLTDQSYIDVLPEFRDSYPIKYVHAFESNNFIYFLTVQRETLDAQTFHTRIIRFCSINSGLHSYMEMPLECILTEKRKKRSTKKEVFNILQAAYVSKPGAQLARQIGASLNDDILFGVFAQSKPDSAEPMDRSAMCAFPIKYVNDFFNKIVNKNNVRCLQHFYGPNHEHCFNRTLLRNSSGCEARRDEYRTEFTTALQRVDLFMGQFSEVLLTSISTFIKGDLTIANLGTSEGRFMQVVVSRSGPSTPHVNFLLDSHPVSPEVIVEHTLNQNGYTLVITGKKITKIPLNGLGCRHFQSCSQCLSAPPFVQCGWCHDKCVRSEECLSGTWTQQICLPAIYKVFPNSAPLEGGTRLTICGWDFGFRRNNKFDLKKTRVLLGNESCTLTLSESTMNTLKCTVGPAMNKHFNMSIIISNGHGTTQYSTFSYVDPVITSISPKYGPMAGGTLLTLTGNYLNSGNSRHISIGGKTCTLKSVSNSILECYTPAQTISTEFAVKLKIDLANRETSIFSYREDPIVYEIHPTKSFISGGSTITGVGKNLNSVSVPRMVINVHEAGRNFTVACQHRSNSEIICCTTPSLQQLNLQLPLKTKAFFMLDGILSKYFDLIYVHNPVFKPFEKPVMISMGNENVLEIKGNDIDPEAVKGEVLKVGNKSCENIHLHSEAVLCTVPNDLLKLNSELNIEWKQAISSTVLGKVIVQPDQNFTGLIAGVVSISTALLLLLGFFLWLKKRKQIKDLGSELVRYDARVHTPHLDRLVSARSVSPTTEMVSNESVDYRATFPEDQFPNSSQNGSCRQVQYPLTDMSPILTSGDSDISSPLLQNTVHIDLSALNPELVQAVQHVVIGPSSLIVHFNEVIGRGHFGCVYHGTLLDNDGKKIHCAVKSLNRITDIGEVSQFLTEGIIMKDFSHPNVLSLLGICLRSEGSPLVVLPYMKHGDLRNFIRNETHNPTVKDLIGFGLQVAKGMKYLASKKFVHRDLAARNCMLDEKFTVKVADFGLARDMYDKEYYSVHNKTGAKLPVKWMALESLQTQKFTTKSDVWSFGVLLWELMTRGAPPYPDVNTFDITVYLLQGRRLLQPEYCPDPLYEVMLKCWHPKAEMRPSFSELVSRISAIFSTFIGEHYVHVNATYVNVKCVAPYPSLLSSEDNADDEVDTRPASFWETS

CCN1CCN(Cc2ccc(NC(=O)c3ccc(C)c(/C=C/c4cnc5[nH]ccc5c4OC)c3)cc2C(F)(F)F)CC1
inhibition [1]: 41%
percent of control [2]: 1.2%
inhibition [3]: 21%
residual activity [4]: 100%
inhibition [5]: 77%
inhibition [6]: 81%

CCN1CCN(Cc2ccc(NC(=O)c3ccc(C)c(Oc4ccnc5[nH]ccc45)c3)cc2C(F)(F)F)CC1
percent of control [7]: 3.9%
inhibition [8]: 0%
inhibition [9]: 19%
inhibition [10]: -8%
inhibition [11]: 14%
inhibition [12]: 8.4%
inhibition [13]: 13.7%

CNc1cc(Oc2cc(C(=O)Nc3cc(N4CCN(C)CC4)cc(C(F)(F)F)c3)ccc2C)ncn1
inhibition [14]: 2.7%
inhibition [15]: 8.7%
inhibition at 1 µM [16]: -57.8%
